From patent publication US10766885B1, “Silibinin 3,3′-thiodipropionic acid ester with hepatoprotective activity and a method of preparing the same” (SHAANXI UNIVERSITY OF SCIENCE AND TECHNOLOGY, priority 2020, dated 2020)

Columns and labels:
[1] = DPPH radical scavenging activity assay; assay type: biochemical; conditions: for DPPH Clearance rate: n = 3
From the text: 2,2-Diphenyl-1-picryl hydrazyl (DPPH) is an organic compound composed of a stable organic radical. In the DPPH molecule, due to the presence of multiple electron-withdrawing —NO2 and large π bonds of the benzene ring, nitrogen free radical is stabilized. Its methanol solution is purple and has a maximum absorption peak at 517 nm. After the addition of an antioxidant, DPPH captures an electron to be paired with the free electron, and the purple fades and turns into a yellow substance. The absorption at 517 nm disappears, and the degree of fading is quantitatively related to the number of electrons it captures. Based on this principle, a spectrophotometer is used to detect the change of the absorbance of the DPPH radical and the sample solution, and the ability of the sample to provide hydrogen atoms and scavenge free radicals can be measured.
Preparation of DPPH solution: measuring exact amount of 2,2-diphenyl-1-picryl hydrazyl (DPPH) and dissolving in toluene to prepare a 0.2 mmol/L DPPH solution, stored at 0° C. in dark.
Preparation of test solution: Vc (vitamin C, positive control), compound of formula (I) (sample), silibinin (control) and 3,3′-thiodipropionic acid (control). The sample solution was subjected to gradient dilution with toluene, and three sets of controls were separately dissolved in a test tube with a certain amount of toluene to prepare the same concentration gradient as the sample.
Sample liquid absorbance measurement: Take 2 mL of sample solution (Table 2 Vc, B, C), add 2 mL of DPPH solution with concentration of 2×10^−4 mol/L, mix and react in the dark at room temperature for 30 min, adjust to zero with toluene, and measure at 517 nm. The absorbance Ai was simultaneously measured for the absorbance Aj of 2 mL of toluene mixed with 2 mL of the sample solution and the absorbance Ao of 2 mL of DPPH solution mixed with 2 mL of toluene (the experimental results are shown in Table 3).
Clearance calculation: clearance rate (%)=[1−(Ai−Aj)/Ao]*100%

[2] = test system: Mice with Alcoholic Liver Injury; assay: Protective effect on alcoholic liver injury in mice (serum ALT, AST, TG); assay type: in vivo; conditions: ethanol 3 g/kg/day, after 25 days
Protocol: The compound of formula (I) was prepared by the method of Example 7. In order to study its protective effect on alcoholic liver injury in mice, the following animal model was designed.
Three-week-old 30-35 g SPF male mice were randomly divided into normal control group, model group, low-dose group, high-dose group and tiopronin positive control group after adaptive feeding for 3 days. The normal control group and model group were fed with basic feed every day; low dose group and high dose group were fed with basic diet every day and were given the compound of formula (I) of 10 mg/kg/day and 50 mg/kg/day, respectively; tiopronin positive control group was fed with basic feed and 50 mg/kg/day tiopronin. Ethanol 3 g/kg/day (0.01 mL/g) was given to the model group, low dose group, high dose group and tiopronin positive control group. The normal control group was given distilled water of the same volume. After 25 days, fasting for 2 hours after the last administration, glutamic pyruvic transaminase (ALT), glutamic oxaloacetic transaminase (AST) and triglyceride (TG) were measured in serum by decapitation.

Compound	DPPH Clearance rate ([1]; 1.76 ppm) [%]	DPPH Clearance rate ([1]; 8.80 ppm) [%]	DPPH Clearance rate ([1]; 21.12 ppm) [%]	DPPH Clearance rate ([1]; 42.24 ppm) [%]	DPPH Clearance rate ([1]; 79.20 ppm) [%]	DPPH Clearance rate ([1]; 112.64 ppm) [%]	DPPH Clearance rate ([1]; 281.60 ppm) [%]	DPPH Clearance rate ([1]; 492.80 ppm) [%]	DPPH Clearance rate ([1]; 792.00 ppm) [%]	DPPH Clearance rate ([1]; 915.20 ppm) [%]	ALT ([2]; 10 mg/kg/day) [U/L]	AST ([2]; 10 mg/kg/day) [U/L]	TG ([2]; 10 mg/kg/day) [mmol/L]	ALT ([2]; 50 mg/kg/day) [U/L]	AST ([2]; 50 mg/kg/day) [U/L]	TG ([2]; 50 mg/kg/day) [mmol/L]	scavenging ability compared with the positive control Vc group [1]	scavenging ability to scavenge DPPH free radicals compared with silibinin (B) and 3,3′-thiodipropionic acid (C) alone ([1]; at the same concentration)	highest scavenging rate of DPPH radical ([1]; in the determined concentration range) [%]
COc1cc(C2Oc3cc([C@H]4Oc5cc(O)cc(O)c5C(=O)[C@@H]4O)ccc3OC2CO)ccc1O (stereo partly shown) [B, Silibinin]	8.42	9.16	22.43	27.10	39.53	45.87	60.25	65.88	69.85	72.76									
O=C(O)CCSCCC(=O)O [C, 3,3′-Thiodipropionic acid]	6.85	8.38	17.13	22.38	39.55	43.58	52.23	59.36	64.55	68.22									
COc1cc(C2Oc3cc([C@H]4Oc5cc(O)cc(O)c5C(=O)[C@@H]4O)ccc3OC2COC(=O)CCSCCC(=O)OCC2Oc3ccc([C@H]4Oc5cc(O)cc(O)c5C(=O)[C@@H]4O)cc3OC2c2ccc(O)c(OC)c2)ccc1O (stereo partly drawn) [Compound of Formula (I), bis((3-(4-hydroxy-3-methoxyphenyl)-6-((2R,3R)-3,5,7-trihydroxy-4-oxochroman-2-yl)-2,3-dihydrobenzo[b][1,4]dioxin-2-yl)methyl) 3,3′-thiodipropionate]	13.11	20.80	34.16	44.12	68.42	75.23	81.21	84.70	87.06	89.96	60.88 ± 9.75	138.53 ± 17.85	0.973 ± 0.25	56.17 ± 3.45	132.56 ± 7.21	0.877 ± 0.36	slightly weaker	better	89.96
CC(S)C(=O)NCC(=O)O (stereo not shown) [Tiopronin, tiopronin]														63.45 ± 9.53	143.32 ± 15.46	1.336 ± 0.62			
O=C1O[C@H]([C@@H](O)CO)C(O)=C1O [Vc, vitamin C]	23.16	33.47	79.63	89.55	97.42	97.53	98.29	99.06	99.10	99.28									
